Values quoted from earlier work as cited in paper PMC10593844, “Structure-function analyses reveal key molecular determinants of HIV-1 CRF01_AE resistance to the entry inhibitor temsavir” (Nature Communications, 2023).

Experiments:
[1] = tested on: laboratory-adapted NL4-3 HIV-1 strain; design: method as in PMID 30604750; conditions: cited from earlier work
[2] = tested on: CRF01_AE strains; design: method as in PMID 30604750; conditions: range over CRF01_AE strains; cited from earlier work

Compound | fold greater inhibition than temsavir [1] | IC50 [2] [nM]
COc1cnc(-c2csc(CN(C)CCCN(C)C)n2)c2[nH]cc(C(=O)C(=O)N3CCC(=C(C#N)c4ccccc4)CC3)c12 [BMS-814508] | 4 fold | –
COc1cnc(-c2csc(C(=O)NCCO)n2)c2[nH]cc(C(=O)C(=O)N3CCC(=C(C#N)c4ccccc4)CC3)c12 [BMS-818251] | ~ 100 fold | 32 to 733
